Results reported in article PMC9830933 (European Journal of Medicinal Chemistry, 2023).

What was measured:
MHV-A59 [1] = assay: Mouse MHV efficacy study; assay type: in vivo, BALB/c mice; conditions: for viral titers (MHV-A59 RNA copies) in the liver (in words): mouse, in vivo
FCoV = conditions: intraperitoneal injection, FCoV-afflicted cats; cited from earlier work
Aqueous solubility = assay type: physicochemical
MHV-A59 [2] = assay: In vitro anti-MHV-A59 activity assay in L929 cells; assay type: cell-based, murine coronavirus mouse hepatitis virus A-59; conditions: for effect on cellular replication of MHV-A59 (in words): up to 200 μM; for potency relative to GS-441524 (MHV-A59 EC50), fold more potent: vs GS-441524 EC50 = 10.01 μM
[3] = ATV041 10, 50, 200 mg/kg oral QD, 3 dpi

## N#C[C@@]1(c2ccc3c(N)ncnn23)O[C@H](CO)[C@@H](O)[C@H]1O [GS-441524, 1′-CN-4-aza-7,9-dideazaadenosine C-nucleoside, reference compound]
MHV-A59 [1]; 100 mg/kg GS-441524 (B1) or 200 mg/kg ATV041 (C3), same molar concentration, oral QD, 3 dpi
  viral titer / viral replication in the lungs (in words): about one order of magnitude
MHV-A59 [1]; 3 dpi
  lung histopathology (H&E) (in words): did not demonstrate protect effects
MHV-A59 [1]
  viral titers (MHV-A59 RNA copies) in the liver (in words): below the detection limit
FCoV
  cure rate: up to 96%

## COc1ccc2c(c1)c(CC(=O)OC[C@H]1O[C@@](C#N)(c3ccc4c(N)ncnn34)[C@H](O)[C@@H]1O)c(C)n2C(=O)c1ccc(Cl)cc1 [ATV043, ((2R,3S,4R,5R)-5-(4-aminopyrrolo[2,1-f][1,2,4]triazin-7-yl)-5-cyano-3,4-dihydroxytetrahydrofuran-2-yl)methyl 2-(1-(4-chlorobenzoyl)-5-methoxy-2-methyl-1H-indol-3-yl)acetate]
Aqueous solubility
  aqueous solubility (in words): hardly soluble

## CC(C)Cc1ccc(C(C)C(=O)O)cc1 (centres unmarked) [Ibuprofen, reference compound]
MHV-A59 [1]; ibuprofen 70 mg/kg oral QD dosed alone, 3 dpi
  antiviral effect in lung and liver (in words): did not show an antiviral effect
MHV-A59 [2]; Fig. S1
  effect on cellular replication of MHV-A59 (in words): did not affect
MHV-A59 [2]; Fig. S1, listed as ibuprofen
  effect on cellular replication of MHV-A59 (in words): did not inhibit

## CC(C)Cc1ccc(C(C)C(=O)OC[C@H]2O[C@@](C#N)(c3ccc4c(N)ncnn34)[C@H](O)[C@@H]2O)cc1 (stereo partly drawn) [ATV041, ((2R,3S,4R,5R)-5-(4-aminopyrrolo[2,1-f][1,2,4]triazin-7-yl)-5-cyano-3,4-dihydroxytetrahydrofuran-2-yl)methyl 2-(4-isobutylphenyl)propanoate]
MHV-A59 [1]; 10 mg/kg oral QD, 23-day observation
  survival rate: 100%
MHV-A59 [1]; 200 mg/kg oral QD, 3 dpi
  pro-inflammatory factors in the lungs (in words): considerably reduced to a level similar to the mock-infected mice
MHV-A59 [1]; 3 dpi
  liver histopathology (H&E) (in words): obvious remission effects
  lung histopathology (H&E) (in words): alleviated symptoms
MHV-A59 [1]; [3]
  dose dependence of inhibition of viral replication in the liver (in words): dose-dependently inhibited
  dose dependence of inhibition of viral replication in the lungs (in words): dose-dependent inhibition
MHV-A59 [1]
  viral titers (MHV-A59 RNA copies) in the liver (in words): below the detection limit
MHV-A59 [1]; serum chemical analysis, 3 dpi
  plasma ALT and AST (in words): significantly reduced
Aqueous solubility
  aqueous solubility (in words): slightly better solubility
MHV-A59 [2]
  potency relative to GS-441524 (MHV-A59 EC50), fold more potent: about 8 fold

## COc1ccc2cc([C@H](C)C(=O)OC[C@H]3O[C@@](C#N)(c4ccc5c(N)ncnn45)[C@H](O)[C@@H]3O)ccc2c1 [ATV039, ((2R,3S,4R,5R)-5-(4-aminopyrrolo[2,1-f][1,2,4]triazin-7-yl)-5-cyano-3,4-dihydroxytetrahydrofuran-2-yl)methyl (S)-2-(6-methoxynaphthalen-2-yl)propanoate]
Aqueous solubility
  aqueous solubility (in words): slightly better solubility

## N#C[C@@]1(c2ccc3c(N)ncnn23)O[C@H](COC(=O)Cc2ccccc2Nc2c(Cl)cccc2Cl)[C@@H](O)[C@H]1O [ATV042, ((2R,3S,4R,5R)-5-(4-aminopyrrolo[2,1-f][1,2,4]triazin-7-yl)-5-cyano-3,4-dihydroxytetrahydrofuran-2-yl)methyl 2-(2-((2,6-dichlorophenyl)amino)phenyl)acetate]
Aqueous solubility
  aqueous solubility (in words): hardly soluble

## CC(C(=O)OC[C@H]1O[C@@](C#N)(c2ccc3c(N)ncnn23)[C@H](O)[C@@H]1O)c1cccc(Oc2ccccc2)c1 (stereo partly drawn) [ATV038, ((2R,3S,4R,5R)-5-(4-aminopyrrolo[2,1-f][1,2,4]triazin-7-yl)-5-cyano-3,4-dihydroxytetrahydrofuran-2-yl)methyl 2-(3-phenoxyphenyl)propanoate]
Aqueous solubility
  aqueous solubility (in words): slightly better solubility
MHV-A59 [2]
  potency relative to GS-441524 (MHV-A59 EC50), fold more potent: about 8 fold

## CC(C(=O)OC[C@H]1O[C@@](C#N)(c2ccc3c(N)ncnn23)[C@H](O)[C@@H]1O)c1cccc(C(=O)c2ccccc2)c1 (stereo partly drawn) [ATV040, ((2R,3S,4R,5R)-5-(4-aminopyrrolo[2,1-f][1,2,4]triazin-7-yl)-5-cyano-3,4-dihydroxytetrahydrofuran-2-yl)methyl 2-(3-benzoylphenyl)propanoate]
Aqueous solubility
  aqueous solubility (in words): significantly improved the solubility
